# Patent US20220304950A1, “[…] THE TREATMENT OF PATIENTS WITH MAJOR DEPRESSIVE DISORDER, INCLUDING SUICIDALITY” (JANSSEN PHARMACEUTICALS, INC., priority 2019, published 2022)
# System: adult patients with MDD assessed to be at imminent risk for suicide
# Test: Adverse events (TEAEs, SAEs), Study 1 (Example 4)
# Protocol: This is a randomized, double-blind, placebo-controlled, multicenter study to evaluate the efficacy of intranasal esketamine 84 mg compared with intranasal placebo in addition to comprehensive standard of care in reducing the symptoms of MDD, including suicidal ideation, in adult male and female patients who were assessed to be at imminent risk for suicide.
# The study consisted of a screening evaluation performed within 48 hours prior to the Day 1 intranasal dose, immediately followed by a 25-day double-blind treatment phase (Day 1 to 25), and a 65-day follow-up phase (Day 26 to Day 90). The total study duration for each subject was approximately 13 weeks.
# The study consisted of a screening evaluation performed within 24 to 48 hours prior to the Day 1 dose, immediately followed by a 25-day double-blind treatment phase (Day 1 to 25) with twice-weekly dosing sessions, and a 9-week follow up phase (Day 26 to Day 90). All participants received comprehensive SOC, including in-patient psychiatric hospitalization and the initiation or optimization of standard antidepressant medication (determined by the treating physician based on clinical judgment and practice guidelines).
# [1] = Esk 84 mg + SOC, double-blind phase
# [2] = Esk 84 mg + SOC, double-blind phase, listed as ESK
# [3] = Esk 84 mg + SOC, double-blind phase, listed as Esk
# [4] = Esk 84 mg + SOC, follow-up phase
structure (smiles),measurement,setting,value
"CN[C@]1(c2ccccc2Cl)CCCCC1=O [esketamine, (S)-2-(2-chlorophenyl)-2-(methylamino)cyclohexanone]","SAEs: depression-related events, number","ESK+SOC, follow-up phase",3
same,"SAEs: suicidal ideation-related events, number","ESK+SOC, follow-up phase",7
same,"Serious TEAE Aggression, subjects n",[1],0
same,"Serious TEAE Depression suicidal, subjects %",[1],(1.8%)
same,"Serious TEAE Depression, subjects %",[1],(0.9%)
same,"Serious TEAE Depression, subjects n",[1],1
same,"Serious TEAE Diabetic ketoacidosis, subjects %",[1],(0.9%)
same,"Serious TEAE Diabetic ketoacidosis, subjects n",[1],1
same,"Serious TEAE Hepatobiliary disorders, subjects n",[1],0
same,"Serious TEAE Hypertransaminasaemia, subjects n",[1],0
same,"Serious TEAE Metabolism and nutrition disorders, subjects %",[1],(0.9%)
same,"Serious TEAE Metabolism and nutrition disorders, subjects n",[1],1
same,"Serious TEAE Psychiatric disorders, subjects n",[1],3
same,"Serious TEAE Suicidal ideation, subjects n",[1],0
same,"Serious TEAE Suicide attempt, subjects %",[1],(0.9%)
same,"Serious TEAE Suicide attempt, subjects n",[1],1
same,"Subjects with 1 or more TEAEs, %",[1],88.5%
same,"Subjects with related TEAEs, %",[1],(79.6%)
same,"Subjects with related severe TEAEs, %",[1],(6.2%)
same,"Subjects with serious TEAEs, %",[1],3.5%
same,"TEAE Anxiety, subjects %",[1],(5.3%)
same,"TEAE Anxiety, subjects n",[1],6
same,"TEAE Blood pressure increased, subjects %",[1],(16.8%)
same,"TEAE Blood pressure increased, subjects n",[1],19
same,"TEAE Constipation, subjects %",[1],(13.3%)
same,"TEAE Constipation, subjects n",[1],15
same,"TEAE Dissociation, subjects %",[1],29.2%
same,"TEAE Dissociation, subjects n",[1],33
same,"TEAE Dizziness postural, subjects %",[1],(5.3%)
same,"TEAE Dizziness postural, subjects n",[1],6
same,"TEAE Dizziness, subjects %",[1],35.4%
same,"TEAE Dizziness, subjects n",[1],40
same,"TEAE Dysgeusia, subjects n",[1],16
same,"TEAE Ear and labyrinth disorders, subjects %",[1],(8.0%)
same,"TEAE Ear and labyrinth disorders, subjects n",[1],9
same,"TEAE Eye disorders, subjects %",[1],(11.5%)
same,"TEAE Eye disorders, subjects n",[1],13
same,"TEAE Gastrointestinal disorders, subjects %",[1],(38.1%)
same,"TEAE Gastrointestinal disorders, subjects n",[1],43
same,"TEAE Headache, subjects n",[1],21
same,"TEAE Hypoaesthesia, subjects %",[1],(7.1%)
same,"TEAE Hypoaesthesia, subjects n",[1],8
same,"TEAE Insomnia, subjects %",[1],(6.2%)
same,"TEAE Insomnia, subjects n",[1],7
same,"TEAE Investigations, subjects %",[1],(24.8%)
same,"TEAE Investigations, subjects n",[1],28
same,"TEAE Nausea, subjects %",[1],20.4%
same,"TEAE Nausea, subjects n",[1],23
same,"TEAE Nervous system disorders, subjects %",[1],(68.1%)
same,"TEAE Nervous system disorders, subjects n",[1],77
same,"TEAE Psychiatric disorders, subjects %",[1],(45.1%)
same,"TEAE Psychiatric disorders, subjects n",[1],51
same,"TEAE Sedation, subjects %",[1],(6.2%)
same,"TEAE Sedation, subjects n",[1],7
same,"TEAE Somnolence, subjects n",[1],21
same,"TEAE Vertigo, subjects %",[1],(6.2%)
same,"TEAE Vertigo, subjects n",[1],7
same,"TEAE Vision blurred, subjects %",[1],(8.8%)
same,"TEAE Vision blurred, subjects n",[1],10
same,"TEAE Vomiting, subjects %",[1],(7.1%)
same,"TEAE Vomiting, subjects n",[1],8
same,"TEAE dysgeusia, subjects %",[1],(14.2%)
same,"TEAE headache, subjects %",[1],(18.6%)
same,"TEAE leading to discontinuation: Aggression, subjects n",[1],0
same,"TEAE leading to discontinuation: Atrioventricular block first degree, subjects n",[1],0
same,"TEAE leading to discontinuation: Blood pressure diastolic increased, subjects n",[1],0
same,"TEAE leading to discontinuation: Blood pressure increased, subjects %",[1],0.9%
same,"TEAE leading to discontinuation: Blood pressure increased, subjects n",[1],1
same,"TEAE leading to discontinuation: Cardiac disorders, subjects n",[1],0
same,"TEAE leading to discontinuation: Confusional state, subjects %",[1],0.9%
same,"TEAE leading to discontinuation: Confusional state, subjects n",[1],1
same,"TEAE leading to discontinuation: Dissociation, subjects %",[1],0.9%
same,"TEAE leading to discontinuation: Dissociation, subjects n",[1],1
same,"TEAE leading to discontinuation: Dizziness, subjects %",[1],0.9%
same,"TEAE leading to discontinuation: Dizziness, subjects n",[1],1
same,"TEAE leading to discontinuation: Hallucination, visual, subjects %",[1],0.9%
same,"TEAE leading to discontinuation: Hallucination, visual, subjects n",[1],1
same,"TEAE leading to discontinuation: Headache, subjects %",[1],0.9%
same,"TEAE leading to discontinuation: Headache, subjects n",[1],1
same,"TEAE leading to discontinuation: Hepatobiliary disorders, subjects n",[1],0
same,"TEAE leading to discontinuation: Hypertransaminasaemia, subjects n",[1],0
same,"TEAE leading to discontinuation: Hypoaesthesia, subjects %",[1],0.9%
same,"TEAE leading to discontinuation: Hypoaesthesia, subjects n",[1],1
same,"TEAE leading to discontinuation: Investigations, subjects %",[1],0.9%
same,"TEAE leading to discontinuation: Investigations, subjects n",[1],1
same,"TEAE leading to discontinuation: Nervous system disorders, subjects %",[1],2.7%
same,"TEAE leading to discontinuation: Nervous system disorders, subjects n",[1],3
same,"TEAE leading to discontinuation: Pharyngeal hypoaesthesia, subjects %",[1],0.9%
same,"TEAE leading to discontinuation: Pharyngeal hypoaesthesia, subjects n",[1],1
same,"TEAE leading to discontinuation: Psychiatric disorders, subjects %",[1],2.7%
same,"TEAE leading to discontinuation: Psychiatric disorders, subjects n",[1],3
same,"TEAE leading to discontinuation: Respiratory, thoracic and mediastinal disorders, subjects %",[1],0.9%
same,"TEAE leading to discontinuation: Respiratory, thoracic and mediastinal disorders, subjects n",[1],1
same,"TEAE leading to discontinuation: Sedation, subjects %",[1],0.9%
same,"TEAE leading to discontinuation: Sedation, subjects n",[1],1
same,"TEAE leading to discontinuation: Somnolence, subjects %",[1],0.9%
same,"TEAE leading to discontinuation: Somnolence, subjects n",[1],1
same,"TEAE leading to discontinuation: Suicidal ideation, subjects n",[1],0
same,"TEAE somnolence, subjects %",[1],(18.6%)
same,"Serious TEAE Depression suicidal, subjects n",[2],1
same,"Serious TEAE Psychiatric disorders, subjects %",[2],< 5%
same,"Subjects with severe TEAEs, %",[2],8.8%
same,"Serious TEAE Depression suicidal, subjects n",[3],2
same,"Serious TEAE Psychiatric disorders, subjects %",[3],(2.7%)
same,"Subjects with 1 or more TEAEs, %",[3],(88.5%)
same,"Subjects with serious TEAEs, %",[3],(3.5%)
same,"Subjects with severe TEAEs, %",[3],(8.8%)
same,"TEAE Dissociation, subjects %",[3],(29.2%)
same,"TEAE Dizziness, subjects %",[3],(35.4%)
same,"TEAE Nausea, subjects %",[3],(20.4%)
same,"Subjects with TEAEs leading to discontinuation of study agent, %","Esk 84 mg + SOC, double-blind phase, safety set",4.4%
same,"AE Anxiety, subjects %",[4],(3.0%)
same,"AE Anxiety, subjects n",[4],3
same,"AE Depression, subjects %",[4],(8.9%)
same,"AE Depression, subjects n",[4],9
same,"AE Headache, subjects %",[4],(5.9%)
same,"AE Headache, subjects n",[4],6
same,"AE Nervous system disorders, subjects %",[4],(11.9%)
same,"AE Nervous system disorders, subjects n",[4],12
same,"AE Psychiatric disorders, subjects %",[4],(28.7%)
same,"AE Psychiatric disorders, subjects n",[4],29
same,"AE Suicidal ideation, subjects %",[4],(5.0%)
same,"AE Suicidal ideation, subjects n",[4],5
same,"SAE Completed suicide, subjects %",[4],(1.0%)
same,"SAE Completed suicide, subjects n",[4],1
same,"SAE Depression suicidal, subjects %",[4],(5.0%)
same,"SAE Depression suicidal, subjects n",[4],5
same,"SAE Depression, subjects %",[4],(1.0%)
same,"SAE Depression, subjects n",[4],1
same,"SAE Depressive symptom, subjects %",[4],(1.0%)
same,"SAE Depressive symptom, subjects n",[4],1
same,"SAE Major depression, subjects %",[4],(1.0%)
same,"SAE Major depression, subjects n",[4],1
same,"SAE Musculoskeletal and connective tissue disorders, subjects n",[4],0
same,"SAE Psychiatric disorders, subjects %",[4],(12.9%)
same,"SAE Psychiatric disorders, subjects n",[4],13
same,"SAE Rhabdomyolysis, subjects n",[4],0
same,"SAE Suicidal ideation, subjects %",[4],(2.0%)
same,"SAE Suicidal ideation, subjects n",[4],2
same,"SAE Suicide attempt, subjects %",[4],(3.0%)
same,"SAE Suicide attempt, subjects n",[4],3
same,"Subjects with 1 or more AEs, %",[4],(48.5%)
same,"Subjects with AEs leading to death, %",[4],(1.0%)
same,"Subjects with serious AEs, %",[4],12.9%
same,"Subjects with severe AEs, %",[4],(5.9%)
same,"Subjects with serious AEs, %","Esk 84 mg + SOC, follow-up phase, listed as Esk",(12.9%)
same,Overall safety and tolerability (in words),intranasal ESK+SOC,safe and tolerated
